Values quoted from earlier work in patent US20200276209A1, “METHODS OF TREATING EPILEPSY OR STATUS EPILEPTICUS” (Sage Therapeutics, Inc., priority 2017, published 2020).
Read-outs that look alike come from different tables or passages of the source.

Tested on: status epilepticus

| SMILES | patients who did not respond to first line treatment (intravenous (IV) treatment) [%] | patients who did not respond to first line treatment (intramuscular (IM) treatment) [%] |
| --- | --- | --- |
| O=C1Nc2ccc(Cl)cc2C(c2ccccc2Cl)=NC1O (centres unmarked) [lorazepam] | 36.6 | – |
| Cc1ncc2n1-c1ccc(Cl)cc1C(c1ccccc1F)=NC2 [midazolam] | – | 26.6 |
